{"source": "patent US9695155B2", "about": "“Herbicidal substituted pyrimidinyloxy benzene compounds” (E. I. DU PONT DE NEMOURS AND COMPANY, priority 2013, dated 2017)", "test_in_all_cases": "Test C preemergence", "key": {"soybean": {"system": "soybean", "format": "in vivo, Glycine max", "settings": "for Soybean plant response rating: preemergence", "description": "(§1) Seeds of plant species selected from blackgrass (Alopecurus myosuroides), Italian ryegrass (Lolium multiflorum), wheat, winter (winter wheat, Triticum aestivum), galium (catchweed bedstraw, Galium aparine), corn (Zea mays), large (Lg) crabgrass (Digitaria sanguinalis), giant foxtail (Setaria faberii), johnsongrass (Sorghum halepense), lambsquarters (Chenopodium album), morningglory (Ipomoea coccinea), yellow nutsedge (Cyperus esculentus), pigweed (Amaranthus retroflexus), ragweed (common ragweed, Ambrosia elatior), soybean (Glycine max), barnyardgrass (Echinochloa crus-galli), oilseed rape (Brassica napus), waterhemp (common waterhemp, Amaranthus rudis), kochia (Kochia scoparia), wild oat (Avena fatua), surinam grass (Brachiaria decumbens), foxtail, green (green foxtail, Setaria viridis), goosegrass (Eleusine indica), bromegrass, downy (downy bromegrass, Bromus tectorum), nightshade (eastern black nightshade, Solanum ptycanthum), cocklebur (common cocklebur, Xanthium strumarium), cupgrass, woolly (woolly cupgrass, Eriochloa villosa), bermudagrass (Cynodon dactylon), sunflower, (common oilseed sunflower, Helianthus annuus), Russian thistle (Salsola kali), and velvetleaf (Abutilon theophrasti) were planted into a blend of loam soil and sand and treated preemergence with test chemicals formulated in a non-phytotoxic solvent mixture which included a surfactant.\n(§2) At the same time, plants selected from these crop and weed species and also barley, winter (winter barley, Hordeum vulgare), windgrass (Apera spica-venti), chickweed (common chickweed, Stellaria media), deadnettle (henbit deadnettle, Lamium amplexicaule), and canarygrass (littleseed canarygrass, Phalaris minor) were planted in pots containing Redi-Earth® planting medium (Scotts Company, 14111 Scottslawn Road, Marysville, Ohio 43041) comprising spaghnum peat moss, vermiculite, wetting agent and starter nutrients and treated with postemergence applications of test chemicals formulated in the same manner. Plants ranged in height from 2 to 18 cm (1- to 4-leaf stage) for postemergence treatments. Treated plants and controls were maintained in a greenhouse for 13 to 15 days, after which time all species were compared to controls and visually evaluated. Plant response ratings, summarized in Table C, are based on a scale of 0 to 100 where 0 is no effect and 100 is complete control. A dash (-) response means no test result."}, "yellow nutsedge": {"system": "yellow nutsedge", "format": "in vivo, Cyperus esculentus", "settings": "for Nutsedge, Yellow plant response rating: preemergence", "description": "as §1, §2"}, "barnyardgrass": {"system": "barnyardgrass", "format": "in vivo, Echinochloa crus-galli", "settings": "for Barnyardgrass plant response rating: preemergence", "description": "as §1, §2"}, "velvetleaf": {"system": "velvetleaf", "format": "in vivo, Abutilon theophrasti", "settings": "for Velvetleaf plant response rating: preemergence", "description": "as §1, §2"}, "blackgrass": {"system": "blackgrass", "format": "in vivo, Alopecurus myosuroides", "settings": "for Blackgrass plant response rating: preemergence", "description": "as §1, §2"}, "waterhemp": {"system": "waterhemp", "format": "in vivo, Amaranthus rudis", "settings": "for Waterhemp plant response rating: preemergence", "description": "as §1, §2"}, "ragweed": {"system": "ragweed", "format": "in vivo, Ambrosia elatior", "settings": "for Ragweed plant response rating: preemergence", "description": "as §1, §2"}, "large (Lg) crabgrass": {"system": "large (Lg) crabgrass", "format": "in vivo, Digitaria sanguinalis", "settings": "for Crabgrass, Large plant response rating: preemergence", "description": "as §1, §2"}, "oilseed rape": {"system": "oilseed rape", "format": "in vivo, Brassica napus", "settings": "for Oilseed Rape plant response rating: preemergence", "method_in_brief": "(§3)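 Sown in loam/sand → sprayed pre-emergence; or grown to 1–4 leaves in peat mix → sprayed post-emergence. Same solvent/surfactant formulation both ways. Greenhouse 13–15 d. Score 0–100 visual.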"}, "wheat, winter": {"system": "wheat, winter", "format": "in vivo, Triticum aestivum", "settings": "for Wheat plant response rating: preemergence", "description": "as §1, §2"}, "lambsquarters": {"system": "lambsquarters", "format": "in vivo, Chenopodium album", "settings": "for Lambsquarters plant response rating: preemergence", "description": "as §1, §2"}, "pigweed": {"system": "pigweed", "format": "in vivo, Amaranthus retroflexus", "settings": "for Pigweed plant response rating: preemergence", "method_in_brief": "as §3"}, "giant foxtail": {"system": "giant foxtail", "format": "in vivo, Setaria faberii", "settings": "for Foxtail, Giant plant response rating: preemergence", "description": "as §1, §2"}, "[1]": {"settings": "16 g ai/ha, scale 0 to 100 (0 no effect, 100 complete control)"}, "[2]": {"settings": "62 g ai/ha, scale 0 (no effect) to 100 (complete control)"}, "[3]": {"settings": "125 g ai/ha, scale 0 (no effect) to 100 (complete control)"}, "[4]": {"settings": "Preemergence, 31 g ai/ha, scale 0 to 100, 0 no effect, 100 complete control"}}, "data": [{"compound": "Fc1cnc(Oc2cccc(C(F)F)c2-n2cc(Cl)cn2)nc1", "note": "[Compound 94]", "values": [{"measurement": "Soybean plant response rating", "setting": "soybean; [1]", "value": 35}, {"measurement": "Soybean plant response rating", "setting": "soybean; [2]", "value": 85}, {"measurement": "Soybean plant response rating", "setting": "soybean; [3]", "value": 95}, {"measurement": "Plant response rating, Soybean", "setting": "soybean; [4]", "value": 50}, {"measurement": "Nutsedge, Yellow plant response rating", "setting": "yellow nutsedge; [1]", "value": 0}, {"measurement": "Nutsedge, Yellow plant response rating", "setting": "yellow nutsedge; [2]", "value": 55}, {"measurement": "Nutsedge, Yellow plant response rating", "setting": "yellow nutsedge; [3]", "value": 65}, {"measurement": "Plant response rating, Nutsedge, Yellow", "setting": "yellow nutsedge; [4]", "value": 0}, {"measurement": "Barnyardgrass plant response rating", "setting": "barnyardgrass; [1]", "value": 5}, {"measurement": "Barnyardgrass plant response rating", "setting": "barnyardgrass; [2]", "value": 85}, {"measurement": "Barnyardgrass plant response rating", "setting": "barnyardgrass; [3]", "value": 100}, {"measurement": "Plant response rating, Barnyardgrass", "setting": "barnyardgrass; [4]", "value": 10}, {"measurement": "Velvetleaf plant response rating", "setting": "velvetleaf; [1]", "value": 40}, {"measurement": "Velvetleaf plant response rating", "setting": "velvetleaf; [2]", "value": 100}, {"measurement": "Velvetleaf plant response rating", "setting": "velvetleaf; [3]", "value": 100}, {"measurement": "Plant response rating, Velvetleaf", "setting": "velvetleaf; [4]", "value": 100}, {"measurement": "Blackgrass plant response rating", "setting": "blackgrass; [1]", "value": 5}, {"measurement": "Blackgrass plant response rating", "setting": "blackgrass; [2]", "value": 90}, {"measurement": "Blackgrass plant response rating", "setting": "blackgrass; [3]", "value": 90}, {"measurement": "Plant response rating, Blackgrass", "setting": "blackgrass; [4]", "value": 20}, {"measurement": "Waterhemp plant response rating", "setting": "waterhemp; [1]", "value": 80}, {"measurement": "Waterhemp plant response rating", "setting": "waterhemp; [2]", "value": 100}, {"measurement": "Waterhemp plant response rating", "setting": "waterhemp; [3]", "value": 100}, {"measurement": "Plant response rating, Waterhemp", "setting": "waterhemp; [4]", "value": 100}, {"measurement": "Ragweed plant response rating", "setting": "ragweed; [1]", "value": 0}, {"measurement": "Ragweed plant response rating", "setting": "ragweed; [2]", "value": 10}, {"measurement": "Ragweed plant response rating", "setting": "ragweed; [3]", "value": 25}, {"measurement": "Plant response rating, Ragweed", "setting": "ragweed; [4]", "value": 0}, {"measurement": "Crabgrass, Large plant response rating", "setting": "large (Lg) crabgrass; [1]", "value": 25}, {"measurement": "Crabgrass, Large plant response rating", "setting": "large (Lg) crabgrass; [2]", "value": 100}, {"measurement": "Crabgrass, Large plant response rating", "setting": "large (Lg) crabgrass; [3]", "value": 100}, {"measurement": "Plant response rating, Crabgrass, Large", "setting": "large (Lg) crabgrass; [4]", "value": 98}, {"measurement": "Oilseed Rape plant response rating", "setting": "oilseed rape; [1]", "value": 85}, {"measurement": "Oilseed Rape plant response rating", "setting": "oilseed rape; [2]", "value": 98}, {"measurement": "Oilseed Rape plant response rating", "setting": "oilseed rape; [3]", "value": 98}, {"measurement": "Plant response rating, Oilseed Rape", "setting": "oilseed rape; [4]", "value": 98}, {"measurement": "Wheat plant response rating", "setting": "wheat, winter; [1]", "value": 0}, {"measurement": "Wheat plant response rating", "setting": "wheat, winter; [2]", "value": 0}, {"measurement": "Wheat plant response rating", "setting": "wheat, winter; [3]", "value": 5}, {"measurement": "Plant response rating, Wheat", "setting": "wheat, winter; [4]", "value": 0}, {"measurement": "Lambsquarters plant response rating", "setting": "lambsquarters; [1]", "value": 40}, {"measurement": "Lambsquarters plant response rating", "setting": "lambsquarters; [2]", "value": 100}, {"measurement": "Lambsquarters plant response rating", "setting": "lambsquarters; [3]", "value": 100}, {"measurement": "Plant response rating, Lambsquarters", "setting": "lambsquarters; [4]", "value": 85}, {"measurement": "Pigweed plant response rating", "setting": "pigweed; [1]", "value": 90}, {"measurement": "Pigweed plant response rating", "setting": "pigweed; [2]", "value": 100}, {"measurement": "Pigweed plant response rating", "setting": "pigweed; [3]", "value": 100}, {"measurement": "Plant response rating, Pigweed", "setting": "pigweed; [4]", "value": 100}, {"measurement": "Foxtail, Giant plant response rating", "setting": "giant foxtail; [1]", "value": 5}, {"measurement": "Foxtail, Giant plant response rating", "setting": "giant foxtail; [2]", "value": 100}, {"measurement": "Foxtail, Giant plant response rating", "setting": "giant foxtail; [3]", "value": 100}, {"measurement": "Plant response rating, Foxtail, Giant", "setting": "giant foxtail; [4]", "value": 65}]}]}
